Molecules are shown by their SMILES.

The test system of the assay is STAT5 phosphorylation at Tyr694. The experiment in a line: STAT5 phosphorylation at Tyr694 in MOLM-13 cells, Western blot. Conditions: MOLM-13, 20 hours, Fig. 4D. It is filed as cell-based, human. On the procedure:
Cells were lysed in lysis buffer (50 mM Tris, pH 8.0, 150 mM NaCl, 1% Triton X-100, 0.5% sodium deoxycholate, 0.1% SDS, 1 mM sodium orthovanadate, 1 mM PMSF, and 1 mM DTT). Protein lysates were resolved by SDS-PAGE and transferred onto a polyvinylidene difluoride (PVDF) membrane (Millipore, Bedford, MA, USA). The membranes were immunoblotted with appropriate antibodies and detected using the SuperSignal reagent (Pierce, Rockford, IL, USA) followed by exposure to X-ray film.
Some histone deacetylase inhibitors (HDACi) will enhance the cytotoxic activity of FLT3 inhibitor on FLT3-ITD^+ cell via degradation of FLT3-ITD and STAT5 [24], [26], [36], [37]. To determine whether SAHA, an HDACi, can synergize with BPR1J-340 to enhance cytotoxicity in FLT3-ITD expressing cells by interfering with the FLT3-ITD and STAT5 axis, the combined effects of SAHA and BPR1J-340 on cytotoxicity were examined. The cell growth rate of MOLM-13 and MV4;11 with SAHA and BPR1J-340 combinational treatment was decreased compared with the single-drug treatment (Fig. 4A). […]
Figure 4 The effect of BPR1J-340 and SAHA versus drug combination on AML FLT3-ITD+ cells. […] (A) Viable cells were counted after staining with trypan blue dye at indicated time point (B) At 48-hours after treatment, cells were stained with FITC-labeled annexin V and propidium iodide and percentages of apoptotic cells were analyzed by flow cytometry. […]

Regarding `CCc1cc(NC(=O)NCc2ccc(-c3cc(NC(=O)c4ccc(CN5CCN(C)CC5)cc4)[nH]n3)cc2)no1` [BPR1J-340, N1-(3-4-[([(5-ethyl-3-isoxazolyl)amino]carbonylamino)methyl]phenyl-1H-5-pyrazolyl)-4-[(4-methylpiperazino)methyl]benzamide], the “STAT5 phosphorylation at Tyr694” value was “completely block”.
